Laboratory results taken from ChEMBL document CHEMBL1149854, “Glycosides from the bark of Adina polycephala” (2008).

Assay: Antiinflammatory activity in rat polymorphonuclear leukocytes assessed as inhibition of platelet activating factor-induced release of beta-glucuronidase at 10 uM after 15 mins
Type: functional
Settings: 0.25 h

Compound	inhibition at 10 µM
COc1cc(C(=O)OC[C@H]2O[C@@H](OC(=O)c3cc(OC)c(O)c(OC)c3)[C@H](O)[C@@H](O)[C@@H]2O)ccc1O[C@@H]1O[C@H](COC(=O)c2cc(OC)c(O)c(OC)c2)[C@@H](O)[C@H](O)[C@H]1O	6%
COC(=O)C1=CO[C@@H](O[C@@H]2O[C@H](CO[C@@H]3O[C@@H](C)[C@H](O)[C@@H](O)[C@H]3O)[C@@H](O)[C@H](O)[C@H]2O)[C@@H]2C(CO)=CC[C@H]12	44.8%
COc1cc(O)ccc1O[C@@H]1O[C@H](COC(=O)c2ccc(O[C@@H]3O[C@H](COC(=O)c4cc(OC)c(O)c(OC)c4)[C@@H](O)[C@H](O)[C@H]3O)c(OC)c2)[C@@H](O)[C@H](O)[C@H]1O	43.6%
COc1cc(C(=O)O)ccc1O[C@@H]1O[C@H](COC(=O)c2ccc(O[C@@H]3O[C@H](COC(=O)c4cc(OC)c(O)c(OC)c4)[C@@H](O)[C@H](O)[C@H]3O)c(OC)c2)[C@@H](O)[C@H](O)[C@H]1O	60.2%
COc1cc(O[C@@H]2O[C@H](COC(=O)c3ccc(O[C@@H]4O[C@H](COC(=O)c5cc(OC)c(O)c(OC)c5)[C@@H](O)[C@H](O)[C@H]4O)c(OC)c3)[C@@H](O)[C@H](O)[C@H]2O)ccc1O	25.2%
C[C@@H]1C(=O)O[C@H]2[C@H](O)[C@@]34[C@H]5C[C@@H](C(C)(C)C)[C@]36[C@@H](OC(=O)[C@@H]6O)O[C@@]4(C(=O)O5)[C@@]12O [GINKOLIDE B]	78.8%
